Results from ChEMBL document CHEMBL1138279, “Platelet-activating factor (PAF) receptor binding antagonists from Alpinia officinarum” (Bioorg Med Chem Lett, 2007).

Assay: Displacement of [3H]PAF from rabbit PAF receptor
Parameters: species or system Oryctolagus cuniculus

Row | IC50 [nM] | Structure (SMILES)
1 | 5000 | O=C(/C=C/CCc1ccccc1)CCc1ccccc1
2 | 1600 | COC(CCc1ccccc1)CC(=O)CCc1ccccc1 (stereo not drawn)
3 | 1300 | O=C(/C=C/C(O)Cc1ccccc1)CCc1ccccc1 (stereo not drawn)
